Laboratory results as given in the supplement of paper PMC10307832.

Assays:
Experiment in all cases: relative viability (nuclei count vs DMSO), 5 days (fraction); higher = more cells survive
[1] = compound: OCc1c[nH]c2ccccc12 [Indole-3-carbinol] + CS(=O)(=O)CCNCc1ccc(-c2ccc3ncnc(Nc4ccc(OCc5cccc(F)c5)c(Cl)c4)c3c2)o1 [Lapatinib] (partner 2 µM)
How it was run: (§1)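 Lung cancer cell lines in 1536-well plates were dosed by pin tool the day after seeding, either with one drug alone or with a fixed anchor-drug dose plus five library-drug doses (not always all listed) in √10 steps. After 5 days, cells were fixed and their nuclei stained in one step (final 0.05% Triton X-100, 1% formaldehyde, 1 ug/ml Hoechst), then counted on 4× images. Relative viability is the nuclei count in treated wells divided by that in vehicle wells. Values are medians of duplicate plates.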

[2] = compound: OCc1c[nH]c2ccccc12 [Indole-3-carbinol] + Cc1nc(NC(=O)N2CCC[C@H]2C(N)=O)sc1-c1ccnc(C(C)(C)C(F)(F)F)c1 [Alpelisib] (partner 2 µM)
How it was run: as §1

[3] = compound: OCc1c[nH]c2ccccc12 [Indole-3-carbinol] + N=C(N)NC(=N)NCCc1ccccc1 [Phenformin] (partner 250 µM)
How it was run: as §1

[4] = compound: OCc1c[nH]c2ccccc12 [Indole-3-carbinol] + NC(=O)Nc1cc(-c2cccc(F)c2)sc1C(=O)N[C@H]1CCCNC1 [AZD7762] (partner 0.2 µM)
How it was run: as §1

[5] = compound: OCc1c[nH]c2ccccc12 [Indole-3-carbinol] + Cc1nc(Nc2ncc(C(=O)Nc3c(C)cccc3Cl)s2)cc(N2CCN(CCO)CC2)n1 [Dasatinib] (partner 0.075 µM)
How it was run: as §1

Cell Line	relative viability ([1]; first compound 0.253 µM)	relative viability ([1]; first compound 0.8 µM)	relative viability ([1]; first compound 2.53 µM)	relative viability ([1]; first compound 8 µM)	relative viability ([2]; first compound 0.253 µM)	relative viability ([2]; first compound 0.8 µM)	relative viability ([2]; first compound 2.53 µM)	relative viability ([2]; first compound 8 µM)	relative viability ([3]; first compound 0.253 µM)	relative viability ([3]; first compound 0.8 µM)	relative viability ([3]; first compound 2.53 µM)	relative viability ([3]; first compound 8 µM)	relative viability ([4]; first compound 0.253 µM)	relative viability ([4]; first compound 0.8 µM)	relative viability ([4]; first compound 2.53 µM)	relative viability ([4]; first compound 8 µM)	relative viability ([5]; first compound 0.253 µM)	relative viability ([5]; first compound 0.8 µM)	relative viability ([5]; first compound 2.53 µM)	relative viability ([5]; first compound 8 µM)
HCC-44	1.02	1.04	0.973	0.988	0.788	0.845	0.851	0.773	0.168	0.198	0.187	0.295	1.03	1.03	1	0.967				
HCC-78	0.97	0.645	0.768	0.664	0.346	0.309	0.269	0.334	0.654	0.626	0.667	0.845	0.623	0.608	0.643	0.696	0.335	0.436	0.392	0.535
IA-LM	0.842	0.902	0.837	0.783	0.672	0.866	0.77	0.713												
LCLC-103H					0.869	0.882	0.923	0.899	0.317	0.339	0.371	0.337	0.802	0.786	0.86	0.81	0.416	0.489	0.428	0.441
NCI-H441					0.796	0.831	0.794	0.736	0.883	1.01	0.955	0.797	1.34	1.23	1.27	1.15	0.606	0.598	0.711	0.643
NCI-H520	0.899	0.838	0.868	0.742	0.911	1.07	1.04	0.849	0.58	0.549	0.622	0.585					0.177	0.245	0.242	0.183
NCI-H522									0.621	0.661	0.724	0.671	0.78	0.92	0.956	0.912	0.806	0.961	0.818	0.796
NCI-H661	0.541	0.44	0.533	0.478	0.793	0.502	0.74	0.594	0.281	0.253	0.272	0.266					0.961	0.827	0.819	0.917
NCI-H1650	0.892	0.561	0.875	0.716					0.42		0.462	0.356					0.335		0.324	0.304
NCI-H1703	1.25	1.36	0.945	0.903	0.3	0.4	0.322	0.332					0.155		0.113	0.103				
NCI-H2009	1.02	0.929	0.695	0.872	1.17	1.23	1.16	1.11	0.512	0.515	0.506	0.465					0.316	0.305	0.33	0.3
NCI-H2023	0.817	0.882	0.778	0.891	0.587	0.587	0.592	0.626	0.454	0.426	0.434	0.399					0.576	0.529	0.578	0.532
NCI-H2228	1.12	1.17	1.2	1.32	0.697	0.902	0.779	0.629	0.327	0.354	0.365	0.383					0.501	0.637	0.595	0.562
SK-LU-1	0.941	0.903	1.06	0.829	1.01	1.03	1.07	0.99	0.582	0.57	0.58	0.534					0.194	0.211	0.178	0.208
SK-MES-1	0.455	0.501	0.452	0.421	0.908	0.979	0.833	0.764	0.689	0.733	0.693	0.61					0.472	0.343	0.387	0.417
SW 900									0.81	0.634	0.576	0.455	0.625	0.619	0.705	0.624	0.837	0.79	0.438	0.586
SW 1573	1.2	1.05	1.16	1.08	0.724	0.833	0.822	0.761	0.34	0.449	0.404	0.363					0.553	0.653	0.666	0.407
UMC-11	1.03	0.953	0.91	0.951	0.933	1.02	0.981	0.955	0.33	0.319	0.339	0.324					0.482	0.451	0.514	0.45
